# Columns and labels:
# BovGH167 = biological target: T1, BovGH167 (Bacteroides ovatus, UniProt A0ABF7PI57); experiment: thin layer chromatography of products; assay type: biochemical; conditions: hydrolysis of β-1,4-linkage to κ-NC2 and likely β-NC2 activity as GH167
# T1 construct: gene HMPREF1069_02044; residues 26-775, synthetic codon-optimised gene, pET28a His-tag, E. coli BL21(DE3) Star
# T1 sequence (A0ABF7PI57 26-775): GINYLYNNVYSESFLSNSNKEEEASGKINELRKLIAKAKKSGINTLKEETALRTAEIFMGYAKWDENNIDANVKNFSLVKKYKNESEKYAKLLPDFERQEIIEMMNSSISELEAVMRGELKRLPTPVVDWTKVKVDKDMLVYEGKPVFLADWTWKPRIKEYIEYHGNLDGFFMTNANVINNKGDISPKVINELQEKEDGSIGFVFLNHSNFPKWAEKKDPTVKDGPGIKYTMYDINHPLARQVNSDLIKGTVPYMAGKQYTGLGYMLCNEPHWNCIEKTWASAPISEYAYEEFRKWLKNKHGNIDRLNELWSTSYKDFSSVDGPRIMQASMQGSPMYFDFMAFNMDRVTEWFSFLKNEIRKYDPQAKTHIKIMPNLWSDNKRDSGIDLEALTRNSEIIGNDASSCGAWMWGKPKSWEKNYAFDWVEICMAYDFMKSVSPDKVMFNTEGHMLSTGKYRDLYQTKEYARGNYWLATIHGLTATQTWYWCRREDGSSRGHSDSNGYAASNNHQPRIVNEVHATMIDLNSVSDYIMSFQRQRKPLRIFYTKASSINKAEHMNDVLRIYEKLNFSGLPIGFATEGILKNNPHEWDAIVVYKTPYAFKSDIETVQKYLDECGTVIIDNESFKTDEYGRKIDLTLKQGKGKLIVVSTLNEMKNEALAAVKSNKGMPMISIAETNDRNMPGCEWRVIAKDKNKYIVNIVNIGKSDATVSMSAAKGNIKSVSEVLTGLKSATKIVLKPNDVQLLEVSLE
# GH167 = biological target: T2, GH167 (Pseudoalteromonas fuliginea, UniProt A0ABQ6RII1); experiment: thin layer chromatography of products; assay type: biochemical; conditions: hydrolysis of β-1,4-linkage to κ-NC2 and likely β-NC2
# T2 construct: gene EU509_08810; residues 21-808, signal peptide removed, pET28a His-tag, E. coli BL21(DE3) Star
# T2 sequence (A0ABQ6RII1 entry or part of it): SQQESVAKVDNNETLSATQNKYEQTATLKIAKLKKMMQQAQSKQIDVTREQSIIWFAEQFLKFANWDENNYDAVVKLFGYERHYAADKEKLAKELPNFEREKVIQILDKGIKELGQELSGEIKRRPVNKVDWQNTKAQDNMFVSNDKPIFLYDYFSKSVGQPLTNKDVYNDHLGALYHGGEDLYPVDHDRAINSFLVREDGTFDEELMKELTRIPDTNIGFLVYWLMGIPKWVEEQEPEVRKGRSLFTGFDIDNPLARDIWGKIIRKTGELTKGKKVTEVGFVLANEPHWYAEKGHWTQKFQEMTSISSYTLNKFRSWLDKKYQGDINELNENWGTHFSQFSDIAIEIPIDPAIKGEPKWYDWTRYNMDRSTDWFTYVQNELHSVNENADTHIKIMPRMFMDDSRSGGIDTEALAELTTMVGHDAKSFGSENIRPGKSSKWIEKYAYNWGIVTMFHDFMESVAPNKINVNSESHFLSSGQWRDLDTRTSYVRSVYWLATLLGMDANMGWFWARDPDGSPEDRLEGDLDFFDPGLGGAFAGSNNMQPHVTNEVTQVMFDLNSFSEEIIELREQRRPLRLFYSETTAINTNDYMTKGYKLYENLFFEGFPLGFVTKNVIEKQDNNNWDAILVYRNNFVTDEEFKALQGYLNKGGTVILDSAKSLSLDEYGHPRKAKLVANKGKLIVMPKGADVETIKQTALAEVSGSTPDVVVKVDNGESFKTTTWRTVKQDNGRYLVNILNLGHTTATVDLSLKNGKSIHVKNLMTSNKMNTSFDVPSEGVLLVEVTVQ
# S1_NC = biological target: T3, S1_NC (Pseudoalteromonas fuliginea, UniProt A0ABQ6RIJ3, C84S); experiment: crystal structure of the complex; assay type: binding; conditions: crystal soaking; only the non-reducing end disaccharide (ι-NC2) modelled; active site
# T3 construct: gene EU509_08820; residues 34-507, signal peptide removed, pET28a N-terminal His-tag cut by thrombin for crystals, E. coli BL21(DE3) Star
# T3 sequence (A0ABQ6RIJ3 entry or part of it C84S): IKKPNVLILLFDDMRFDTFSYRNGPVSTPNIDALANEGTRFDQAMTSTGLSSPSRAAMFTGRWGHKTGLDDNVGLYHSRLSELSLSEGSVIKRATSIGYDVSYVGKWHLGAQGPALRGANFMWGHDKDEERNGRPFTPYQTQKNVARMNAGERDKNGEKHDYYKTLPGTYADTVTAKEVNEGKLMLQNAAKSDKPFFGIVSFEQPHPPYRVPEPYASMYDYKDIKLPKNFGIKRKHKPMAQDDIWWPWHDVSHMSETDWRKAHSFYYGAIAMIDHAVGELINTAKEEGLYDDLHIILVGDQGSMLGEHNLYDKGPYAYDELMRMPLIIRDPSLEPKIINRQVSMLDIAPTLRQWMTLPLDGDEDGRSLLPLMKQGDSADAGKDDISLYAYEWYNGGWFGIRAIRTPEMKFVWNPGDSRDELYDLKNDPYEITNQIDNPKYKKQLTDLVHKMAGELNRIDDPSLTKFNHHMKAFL
# S1_19A = biological target: T4, S1_19A (Pseudoalteromonas fuliginea, UniProt A0ABQ6RIU8); experiment: product analysis, details in supplement; assay type: biochemical; conditions: removes 4-sulfate from G4S adjacent to the non-reducing end
# T4 construct: gene EU509_08825; pET28a His-tag, E. coli BL21(DE3) Star with formylglycine generating enzyme; cloning described previously
# T4 sequence (A0ABQ6RIU8 entry or part of it): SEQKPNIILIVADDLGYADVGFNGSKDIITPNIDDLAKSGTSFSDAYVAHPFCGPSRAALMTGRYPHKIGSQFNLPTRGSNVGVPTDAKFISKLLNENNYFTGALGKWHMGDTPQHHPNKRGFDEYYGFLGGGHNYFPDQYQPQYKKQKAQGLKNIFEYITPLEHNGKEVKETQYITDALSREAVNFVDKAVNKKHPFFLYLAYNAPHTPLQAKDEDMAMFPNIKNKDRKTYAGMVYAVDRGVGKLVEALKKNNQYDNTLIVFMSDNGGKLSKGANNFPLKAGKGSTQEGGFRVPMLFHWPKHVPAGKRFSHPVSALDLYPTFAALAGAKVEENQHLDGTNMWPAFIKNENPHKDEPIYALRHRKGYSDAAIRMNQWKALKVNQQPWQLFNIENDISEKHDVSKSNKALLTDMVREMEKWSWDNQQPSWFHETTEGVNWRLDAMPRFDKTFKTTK
# S1_19B = biological target: T5, S1_19B (Pseudoalteromonas fuliginea, UniProt A0ABQ6RIL2, C77S); experiment: crystal structure of the complex; assay type: binding; conditions: co-crystallization; inactive (non-productive) complex; C77S inferred from methods (mutants in complex with ligands)
# T5 construct: gene EU509_08890; residues 28-473, signal peptide removed, pET28a N-terminal His-tag (cut by thrombin for crystals), E. coli BL21(DE3) Star with formylglycine generating enzyme; dimer
# T5 sequence (A0ABQ6RIL2 entry or part of it C77S): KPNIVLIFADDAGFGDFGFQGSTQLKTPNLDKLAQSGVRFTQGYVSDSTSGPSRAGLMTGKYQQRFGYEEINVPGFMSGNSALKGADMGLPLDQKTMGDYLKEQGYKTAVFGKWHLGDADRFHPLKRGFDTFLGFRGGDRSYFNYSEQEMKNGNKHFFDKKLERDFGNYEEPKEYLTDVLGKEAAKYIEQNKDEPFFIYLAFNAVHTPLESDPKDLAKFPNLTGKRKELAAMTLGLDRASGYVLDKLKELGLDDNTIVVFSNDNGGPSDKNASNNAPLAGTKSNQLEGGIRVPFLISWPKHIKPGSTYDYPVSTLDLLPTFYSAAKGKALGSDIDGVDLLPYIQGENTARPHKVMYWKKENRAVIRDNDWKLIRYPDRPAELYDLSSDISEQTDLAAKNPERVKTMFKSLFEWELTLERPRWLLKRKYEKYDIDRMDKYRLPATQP
# [1] = biological target: DauA, 3,6-anhydro-D-galactose dehydrogenase from Pseudoalteromonas fuliginea PS47 (Pseudoalteromonas fuliginea PS47); experiment: crystal structure; hanging drop vapor-diffusion at 18 °C; N-terminal His-Tag cleaved with thrombin before crystallization
# [2] = biological target: S1_19B, exo-G4S κ-carrageenan sulfatase from Pseudoalteromonas fuliginea PS47 (Pseudoalteromonas fuliginea PS47); experiment: as above
# [3] = biological target: S1_19B, exo-G4S κ-carrageenan sulfatase from Pseudoalteromonas fuliginea PS47 (Pseudoalteromonas fuliginea PS47); experiment: not stated; in solution; method told only in Supplementary Notes (section 3) and Supplementary Fig. 7b-d
compound,measurement,setting,value
"O=S(=O)(O)O[C@@H]1[C@H](O[C@H]2O[C@@H]3CO[C@H]([C@H]2O)[C@H]3O[C@@H]2O[C@H](CO)[C@H](O)[C@H](O[C@H]3O[C@@H]4CO[C@@H]([C@H]4O)[C@H]3O)[C@H]2O)[C@@H](O)C(O)O[C@@H]1CO (stereo partly drawn) [β/κ-NC4, β/κ-neocarratetraose]",thin layer chromatography of products,BovGH167,has the same enzymatic activity as GH167 (Fig. 5a)
same,thin layer chromatography of products,GH167,Using TLC we found activity on hybrid β/κ-neocarratetraose (β/κ-NC4)
"O=S(=O)(O)O[C@@H]1[C@H](O[C@H]2O[C@@H]3CO[C@@H]([C@H]3O)[C@H]2OS(=O)(=O)O)[C@@H](O)[C@H](O[C@@H]2[C@@H]3OC[C@H]2O[C@H](O[C@H]2[C@@H](OS(=O)(=O)O)[C@@H](CO)OC(O)[C@@H]2O)[C@@H]3OS(=O)(=O)O)O[C@@H]1CO (some centres unmarked) [ι-NC4, ι-neocarratetraose]",crystal structure of the complex,S1_NC,structural analysis of the S1_NC C84S mutant in complex with ι-NC4
same,"product analysis, details in supplement",S1_19A,can remove the 4-sulfate from the G4S residue that is adjacent to the non-reducing end
same,crystal structure of the complex,S1_19B,the structure of this enzyme in complex with ι-NC4 revealed the ability of the enzyme to bind
"DauA, 3,6-anhydro-D-galactose dehydrogenase from Pseudoalteromonas fuliginea PS47 (enzyme)",stoichiometry N,[1],2
"S1_19B, exo-G4S κ-carrageenan sulfatase from Pseudoalteromonas fuliginea PS47 (enzyme)",stoichiometry N,[2],2
same,stoichiometry N,[3],2

# Source: PMC6923384, “Insights into the κ/ι-carrageenan metabolism pathway of some marine Pseudoalteromonas species” (Communications Biology, 2019)
